Measurements from patent US5455228A, “Peptidase resistant thrombin receptor peptide ligand” (The Research Foundation of State University of New York, priority 1993, dated 1995).
Numbered stars: 1 amine (or outer) side, 2 acyl side, 3 side chain; on linkers, the order of the positions; unused ones are H or OH. Square brackets hold non-standard residues; d marks the D form. Ends that are not written are not given here. Peptide text beside a SMILES is read from it. ξ: configuration not given here. ξIsoserine = O=C(C(O)CN[*:1])[*:2]

Legend:
plasma aminopeptidase M [1] = target: T1, plasma aminopeptidase M (Homo sapiens, UniProt P15144); test: Loss of peptide platelet aggregating activity during plasma incubation; type: in vitro ADME; settings: for aggregating activity after plasma incubation: 125 μM peptide; for platelet aggregating activity when incubated in plasma: 2 mM peptide mixed 1:1 with platelet-poor plasma, up to 2 hours
T1 construct: from tissue; host or cells: human citrated platelet-poor plasma
Description: (§1) Platelet Aggregation. Platelet Rich Plasma (hereinafter "PRP") was obtained from human blood anticoagulated with sodium citrate (0.01 volume of 40% trisodium citrate) or acid-citrate-dextrose (hereinafter "ACD") solution A (ACD-A; 8.5 mL of blood: 1.5 mL of ACD-A) by centrifugation at 700 g for 3.5 min. at 22° C. Platelet-poor plasma (hereinafter "PPP") was obtained by centrifuging the PRP at 2000g for 8 min. at 22° C. The pH of the citrated PRP after preparation was about 7.7 whereas the pH of the ACD-A PRP was about 7.0. The pH of the PRP was adjusted, when necessary with 1M NaOH or 1M HCl and maintained at about 7.70. Platelet aggregation was performed in a dual-channel aggregometer (Chronolog, Hayertown, Pa.) using matched stir bars.
[…] Aliquots were removed at 15, 30, 45, 60 and 120 minutes and analyzed for both the ability to aggregate platelets and peptide cleavage.

plasma aminopeptidase M [2] = target: T1, plasma aminopeptidase M; test: Peptide digestion during incubation with platelet-poor plasma, HPLC; type: in vitro ADME
Description: (§2) Peptide Digestion Studies. For T-11 amino acids 1 to 11 of SEQ ID NO:1 and (D-Ser)T-11 SEQ ID NO:11 digestions, 0.11 volume of 20 mM peptide in 0.15M NaCl, 0.01 Tris/HCl, pH 7.4, was added to citrated platelet-poor plasma to achieve a final concentration of 2 mM. Samples were incubated for 2 hours at 37° C. and then the plasma proteins were precipitated with 9-10% trichloroacetic acid at 4° C. for at least 30 min. After centrifugation at 12000 g at 22° C. for 3 min., the supernatant was analyzed to determine peptide cleavage by reverse-phase HPLC (C8; Applied Biosystems 300 RP Aquapore; 220×4.6-mm column); elution was with 0.1% trifluoroacetic acid with a 0-60% acetonitrile gradient.
(§3) To determine the amino acid sequence of the digestion products of T-11 amino acids 1 to 11 of SEQ ID NO:1 and (D-Ser)T-11 SEQ ID NO:11 and to assess their ability to aggregate platelets, the peptide (2 mM) was incubated with citrated PPP for 2 hours at 37° C., plasma proteins were precipitated with trichloroacetic acid, and the supernatant after centrifugation was both analyzed and fractionated on the analytical reverse-phase column. Peak fractions were dried in a vacuum centrifuge (Speed-Vac, Savant, Farmingdale, N.Y.) and dissolved in either buffer (0.15M NaCl and 0.01 M Tris/HCl, pH 7.4) for aggregation studies or 0.1% trifluoroacetic acid for amino acid analysis. Quantitative amino acid analysis of the peptides was performed with commercial reagents and equipment (Pico-Tag workstation and C-18 Pico-Tag column; Waters-Millipore, Bedford, Mass.). The amino acid sequence could then be inferred from the amino acid content of each peak.
(§4) For the Ser-Phe-Leu-Leu-Arg-Asn (SFLLRN) amino acids 1 to 6 of SEQ ID NO:1 and (iso-Ser)-Phe-Leu-Leu-Arg-Asn ((iso-S))FLLRN SEQ ID NO:7 studies, 2 mM peptide in buffer (0.15 M NaCl, 0.01 M Tris/HCl, pH 7.4) was mixed with an equal volume of citrated platelet-poor plasma (1:1) and separately with an equal volume of buffer and incubated at 37° C for variable periods of time. Aliquots were removed at 15, 30, 45, 60 and 120 minutes and analyzed for both the ability to aggregate platelets and peptide cleavage.
(§5) For peptide digestion studies for SFLLRN amino acids 1 to 6 of SEQ ID NO:1 and (iso-S)FLLRN SEQ ID NO:7, samples were removed at various times and analyzed for peptide digestion by HPLC after precipitating the plasma proteins with trichloroacetic acid.

[3] = target: T2, thrombin receptor on platelets (Homo sapiens, UniProt P25116); test: Dose response of peptide-induced platelet aggregation in platelet-rich plasma; type: cell-based
T2 construct: Citrated platelet-rich plasma (PRP; 307,000 platelets/μl, pH 7.0; 0.45 ml) was stirred in a cuvette at 37° C; endogenous in cells; host or cells: human platelets in citrated platelet-rich plasma
T2 sequence (P25116 22-425): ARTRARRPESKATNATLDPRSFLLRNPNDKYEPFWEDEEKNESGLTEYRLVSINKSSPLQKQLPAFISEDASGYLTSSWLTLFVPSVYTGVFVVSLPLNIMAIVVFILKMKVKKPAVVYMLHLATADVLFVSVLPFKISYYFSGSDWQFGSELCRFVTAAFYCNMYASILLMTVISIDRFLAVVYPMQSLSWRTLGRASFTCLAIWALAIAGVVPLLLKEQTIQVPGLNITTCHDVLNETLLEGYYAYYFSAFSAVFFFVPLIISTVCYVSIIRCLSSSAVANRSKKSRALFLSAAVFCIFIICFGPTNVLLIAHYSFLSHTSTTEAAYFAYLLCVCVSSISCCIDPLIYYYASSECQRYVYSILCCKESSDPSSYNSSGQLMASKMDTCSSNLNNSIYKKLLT
Description: as §1
Dose Response of Peptide-Induced Aggregation. Citrated platelet-rich plasma (PRP; 307,000 platelets/μl, pH 7.0; 0.45 ml) was stirred in a cuvette at 37° C. and then […] of Ser-Phe-Leu-Leu-Arg-Asn-Pro-Asn-Asp-Lys-Tyr (T-11) amino acids 1 to 11 of SEQ ID NO:1, (D-Ser)-Phe-Leu-Leu-Arg-Asn-Pro-Asn-Asp-Lys-Tyr ((DS)T-11) SEQ ID NO:11, Ser-Phe-Leu-Leu-Arg-Asn amino acids 1 to 6 of SEQ ID NO:1 or (iso-Ser)-Phe-Leu-Leu-Arg-Asn SEQ ID NO:7 peptide was added to achieve the final concentration as follows: Ser-Phe-Leu-Leu-Arg-Asn-Pro-Asn-Asp-Lys-Tyr amino acids 1 to 11 of SEQ ID NO:1 was added to a maximum concentration of 2.9 μM; (D-Ser)-Phe-Leu-Leu-Arg-Asn-Pro-Asn-Asp-Lys-Tyr SEQ IS NO:11 was added to a maximum concentration of 940 μM; Ser-Phe-Leu-Leu-Arg-Asn amino acids 1 to 6 of SEQ ID NO:1 was added to a maximum concentration of 1.7 μM; (iso-Ser)-Phe-Leu-Leu-Arg-Asn SEQ ID NO:7 was added up to a maximum concentration of 4.9 μM.

plasma aminopeptidase M [4] = test system: T3, plasma aminopeptidase M; test: Peptide digestion during incubation with platelet-poor plasma, HPLC; type: in vitro ADME, human; settings: human; for remaining at 2 h, 1 mM: 120 min; for metabolised at 2 h, 1 mM: incubated with plasma at 37° C., about two hours, read-out: peptide cleavage
T3 construct: from tissue; host or cells: human citrated platelet-poor plasma
Description: as §2, §3, §4, §5

plasma aminopeptidase M [5] = target: T1, plasma aminopeptidase M; settings: previously demonstrated, Coller et al. 1992; cited from earlier work
gel-filtered platelets = settings: Vu et al. 1991; cited from earlier work
aminopeptidase M = aminopeptidase M (Homo sapiens, UniProt P15144); settings: Coller et al. 1992; not with thrombin; cited from earlier work
[6] = 1 mM final, 50% platelet-poor plasma, 37° C., 2 hours
[7] = 50% citrated platelet-poor plasma, 1 mM final, 50% platelet-poor plasma, 37° C., read-out: percentage remaining intact

T1 sequence (P15144 whole entry): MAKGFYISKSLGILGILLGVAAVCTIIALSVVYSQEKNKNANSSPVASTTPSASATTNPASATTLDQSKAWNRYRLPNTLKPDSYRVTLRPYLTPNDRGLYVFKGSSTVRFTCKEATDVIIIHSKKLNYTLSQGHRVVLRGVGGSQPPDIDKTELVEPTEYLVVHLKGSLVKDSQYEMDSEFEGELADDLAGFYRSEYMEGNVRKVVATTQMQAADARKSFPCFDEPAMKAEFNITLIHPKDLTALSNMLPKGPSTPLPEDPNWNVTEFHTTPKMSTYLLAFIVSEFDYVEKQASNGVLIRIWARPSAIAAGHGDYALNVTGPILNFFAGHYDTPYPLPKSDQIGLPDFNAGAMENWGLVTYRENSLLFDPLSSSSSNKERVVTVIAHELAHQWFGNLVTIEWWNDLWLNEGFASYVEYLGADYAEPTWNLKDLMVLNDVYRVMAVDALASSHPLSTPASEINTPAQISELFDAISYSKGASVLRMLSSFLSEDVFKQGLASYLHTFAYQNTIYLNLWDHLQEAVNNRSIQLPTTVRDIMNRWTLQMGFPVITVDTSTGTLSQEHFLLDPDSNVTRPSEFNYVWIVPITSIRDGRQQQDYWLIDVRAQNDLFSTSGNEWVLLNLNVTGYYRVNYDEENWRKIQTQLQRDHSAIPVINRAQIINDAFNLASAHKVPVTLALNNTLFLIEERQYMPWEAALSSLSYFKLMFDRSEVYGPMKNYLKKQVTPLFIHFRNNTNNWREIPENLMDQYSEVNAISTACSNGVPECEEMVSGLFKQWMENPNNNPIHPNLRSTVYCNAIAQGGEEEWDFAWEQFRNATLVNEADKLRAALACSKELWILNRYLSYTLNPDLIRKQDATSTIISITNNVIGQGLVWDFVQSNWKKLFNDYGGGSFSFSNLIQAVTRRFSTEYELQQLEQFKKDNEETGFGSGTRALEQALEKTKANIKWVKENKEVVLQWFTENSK
Chain of aminopeptidase M (P15144 whole entry, species assumed): as the sequence (P15144 whole entry) above

Compound: CC(C)C[C@H](NC(=O)[C@H](Cc1ccccc1)NC(=O)[C@H](N)CO)C(=O)N[C@@H](CC(C)C)C(=O)N[C@@H](CCCNC(=N)N)C(=O)N[C@@H](CC(N)=O)C(=O)N1CCC[C@H]1C(=O)N[C@@H](CC(N)=O)C(=O)N[C@@H](CC(=O)O)C(=O)N[C@@H](CCCCN)C(=O)N[C@@H](Cc1ccc(O)cc1)C(N)=O [(DS)T-11, (D-Ser)-Phe-Leu-Leu-Arg-Asn-Pro-Asn-Asp-Lys-Tyr] (H-[dS]FLLRNPNDKY-NH2)
- aggregating activity retained after plasma incubation (plasma aminopeptidase M [1]; incubated with plasma for 1 hour): retained more than half its aggregating activity
- peptide cleavage (in words) (plasma aminopeptidase M [2]; 2 mM peptide, platelet-poor plasma, 37° C., 2 hours): did not undergo any identifiable cleavage

Compound: CC(C)C[C@H](NC(=O)[C@H](Cc1ccccc1)NC(=O)C(O)CN)C(=O)N[C@@H](CC(C)C)C(=O)N[C@@H](CCCNC(=N)N)C(=O)N[C@@H](CC(N)=O)C(N)=O (stereo partly drawn) [(iso-S)FLLRN, (iso-Ser)-Phe-Leu-Leu-Arg-Asn-NH2] (ξIsoserine-FLLRN-NH2)
- platelet activating activity relative to SFLLRN ([3]; citrated PRP): 15-20%
- platelet aggregating activity (in words) ([3]; citrated PRP): substantially active
- EC50 ([3]; citrated PRP, 37° C., read-out: concentration to achieve half-maximal aggregation): ~4 µM
- slope of platelet disaggregation phase ([3]; peptide at 3.7 μM, dose giving equivalent peak aggregation response): 4 U/min
- aggregating activity after plasma incubation (plasma aminopeptidase M [1]; 45 min): retained its full aggregating activity
- aggregating activity after plasma incubation (plasma aminopeptidase M [1]; 1 hour): some decrease in activity
- aggregating activity after plasma incubation (plasma aminopeptidase M [1]; 2 hours): some aggregating activity remained
- platelet aggregating activity when incubated in plasma (plasma aminopeptidase M [1]; 37° C.): lost little if any activity
- peptide activity after incubation with buffer rather than plasma (plasma aminopeptidase M [1]; buffer, 37° C., 2 hours): no decrease in peptide activity
- platelet aggregating activity after plasma incubation (plasma aminopeptidase M [1]; plasma at 37° C., at least two hours): remained unchanged
- extent of digestion (in words) (plasma aminopeptidase M [2]; [6]): minimal digestion
- peptide remaining intact (in words) (plasma aminopeptidase M [2]; 1 mM final, 50% platelet-poor plasma, 37° C., first 60 min): Virtually all
- peptide cleavage (in words) (plasma aminopeptidase M [2]; incubated with plasma at 37° C., 45 minutes): did not undergo identifiable cleavage
- remaining at 2 h, 1 mM (plasma aminopeptidase M [4]; [7]): ~83%
- metabolised at 2 h, 1 mM (plasma aminopeptidase M [4]; citrated platelet-poor plasma): ~17%

Compound: SFLLRNPNDKYEPF [T-14, 14 amino acid peptide mimicking the new amino terminus of the cleaved thrombin receptor]
- aggregating activity when incubated in plasma (plasma aminopeptidase M [5]): lost aggregating activity
- aggregation of gel-filtered platelets (gel-filtered platelets): able to aggregate gel-filtered platelets directly

Compound: SFLLRNPNDKY-NH2 [T-11, Ser-Phe-Leu-Leu-Arg-Asn-Pro-Asn-Asp-Lys-Tyr]
- time to loss of all aggregating activity (plasma aminopeptidase M [1]; incubated with plasma): ≤ 1 h
- platelet aggregating ability after preincubation in plasma (plasma aminopeptidase M [1]; plasma at 37° C.): progressive loss of platelet aggregating ability
- incubation time sufficient to produce significant inhibition of aggregating ability (plasma aminopeptidase M [1]; preincubation in plasma at 37° C.): ≤ 10 min
- remaining at 2 h, 2 mM (plasma aminopeptidase M [4]; citrated platelet-poor plasma, 2 mM peptide, platelet-poor plasma, 37° C., 2 hours, read-out: peptide remaining intact): 34%
- aggregating activity when incubated in plasma (plasma aminopeptidase M [5]): lost aggregating activity

Compound: CC(C)C[C@H](NC(=O)[C@H](CC(C)C)NC(=O)[C@H](Cc1ccccc1)NC(=O)[C@@H](N)CO)C(=O)N[C@@H](CCCN=C(N)N)C(=O)N[C@@H](CC(N)=O)C(N)=O [SFLLRN]
- time to loss of all aggregating activity (plasma aminopeptidase M [1]; 125 μM peptide incubated with plasma): ≤ 0.3 h
- platelet aggregating activity when incubated in plasma (plasma aminopeptidase M [1]; 37° C.): rapidly lost platelet aggregating activity
- time to decrease of platelet aggregating activity (plasma aminopeptidase M [1]; incubated with plasma at 37° C.): ≤ 15 min
- platelet aggregating activity after plasma incubation (plasma aminopeptidase M [1]; plasma at 37° C., 60 minutes): nearly lost
- time to detectable cleavage (plasma aminopeptidase M [2]; 1 mM final, 50% platelet-poor plasma, 37° C.): ≤ 10 min
- extent of digestion (in words) (plasma aminopeptidase M [2]; [6]): nearly complete digestion
- metabolised at 0.25 h, 1 mM (plasma aminopeptidase M [4]; 50% citrated platelet-poor plasma, 1 mM final, 50% platelet-poor plasma, 37° C., 15 min, read-out: peptide no longer intact): 35%
- remaining at 0.5 h, 1 mM (plasma aminopeptidase M [4]; 50% citrated platelet-poor plasma, 1 mM final, 50% platelet-poor plasma, 37° C., 30 min, read-out: percentage remaining intact): 49%
- remaining at 0.75 h, 1 mM (plasma aminopeptidase M [4]; 50% citrated platelet-poor plasma, 1 mM final, 50% platelet-poor plasma, 37° C., 45 min, read-out: percentage remaining intact): 23%
- remaining at 1 h, 1 mM (plasma aminopeptidase M [4]; 50% citrated platelet-poor plasma, 1 mM final, 50% platelet-poor plasma, 37° C., 60 min, read-out: percentage remaining intact): 16%
- remaining at 2 h, 1 mM (plasma aminopeptidase M [4]; [7]): 4%
- metabolised at 2 h, 1 mM (plasma aminopeptidase M [4]; citrated platelet-poor plasma): 96%

Compound: CC(C)C[C@@H](N)[C@H](O)C(=O)N[C@H](C(=O)N[C@H](C(=O)N[C@@H](CC(=O)O)C(=O)O)C(C)C)C(C)C [amastatin]
- effect on aggregation induced by T-11 (aminopeptidase M): enhanced aggregation induced by T-11
